Results on 13 compounds are retold here after PubChem BioAssay (NCI).

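Exposure lasted 48 hours, with cells grown in 96-well plates and compounds tested at five concentrations. Here, GI50 denotes the concentration required for 50% inhibition of growth. Definition used: TGI = concentration required for complete inhibition of growth.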

Some test systems named below: TK-10 renal; EKVX NSCLC; SNB-19 CNS; SF-295 CNS; A498 renal; SK-MEL-5 melanoma; K-562 leukemia; SW-620 colon; NCI-H460 lung; SR leukemia.
Holding throughout (assay): growth of human tumour cells (NCI), 48 h

`NCCNC(=S)S`: the TGI in the test on TK-10 renal, in the test with EKVX NSCLC, with SNB-19 CNS, in the test with SF-295 CNS, in the test with A498 renal and in the test on SK-MEL-5 melanoma was over 100 µM throughout. Moreover, the TGI in the test with K-562 leukemia is 95.1 µM; in the test on SW-620 colon, over 100 µM.

Turning to `COc1ccc2nc3ccccc3c(NCCCCCCN(C)CCCl)c2c1`, the TGI with TK-10 renal is 4.91 µM; with EKVX NSCLC, 3.45 µM; in the test with SNB-19 CNS, 2.77 µM; with SF-295 CNS, 2.88 µM; in the test on A498 renal it was 2.53 µM; with SK-MEL-5 melanoma, 2.16 µM. Moreover, the TGI came to 1.52 µM with SW-620 colon and 1.46 µM in the test on NCI-H460 lung.

On to `CC1C=CC(=O)C(n2cc(F)c(=O)[nH]c2=O)O1` (centres undefined), for which the TGI with TK-10 renal stood at 34.4 µM; with EKVX NSCLC, 50.9 µM; in the test with SNB-19 CNS, 53.6 µM; with SK-MEL-5 melanoma it was 35.8 µM; with K-562 leukemia, 79.8 µM; with SW-620 colon, 36.7 µM. The TGI with NCI-H460 lung was 54.2 µM.

For `Cc1ccccc1CN1CC=c2ccccc2=N1`, the TGI in the test on TK-10 renal, with EKVX NSCLC, with SNB-19 CNS, with SF-295 CNS, in the test on A498 renal and in the test with SK-MEL-5 melanoma was over 100 µM in each case. Further, the TGI in the test with K-562 leukemia, in the test with SW-620 colon and with NCI-H460 lung was over 100 µM each time.

With `Cc1ccccc1C(C#N)C(=O)C(=O)Nc1cccc(Cl)c1` (centres undefined), the TGI in the test with TK-10 renal, with EKVX NSCLC, in the test with SNB-19 CNS, in the test on SF-295 CNS, in the test on A498 renal and in the test on SK-MEL-5 melanoma was over 100 µM each time. Further, the TGI is over 100 µM in the test on K-562 leukemia, 31.6 µM with SW-620 colon and over 100 µM in the test on NCI-H460 lung.

Take `CCOC(=O)c1sc(Nc2ccc(Cl)cc2)nc1C`: the GI50 in the test with TK-10 renal was 2.42 µM; in the test with EKVX NSCLC, 0.969 µM; in the test with SNB-19 CNS, 2.08 µM; in the test with SF-295 CNS, 1.69 µM; in the test on A498 renal it was 1.79 µM; in the test on SK-MEL-5 melanoma, 1.44 µM. Moreover, the GI50 in the test on K-562 leukemia was 2.57 µM; in the test on SW-620 colon, 2.6 µM; with NCI-H460 lung, 2.34 µM. In addition, the TGI was 5.08 µM in the test with TK-10 renal; 5.52 µM in the test on EKVX NSCLC; 6.25 µM in the test with SNB-19 CNS; 3.57 µM with SF-295 CNS; 5.44 µM in the test with A498 renal; 2.76 µM with SK-MEL-5 melanoma. Besides, the TGI with K-562 leukemia was 9.07 µM; with SW-620 colon, 7.54 µM; in the test on NCI-H460 lung, 6.31 µM.

`Cc1ccc(C)c(-c2csc(Nc3ccc(C)c(C)c3)n2)c1`: the GI50 in the test with TK-10 renal is over 100 µM; with SNB-19 CNS, 77 µM; in the test with SF-295 CNS, 57.9 µM; in the test on SK-MEL-5 melanoma, over 100 µM; in the test on K-562 leukemia, over 100 µM; in the test on SR leukemia, over 100 µM. In the test on SW-620 colon, the GI50 was over 100 µM. The TGI in the test on TK-10 renal, with SNB-19 CNS, in the test on SF-295 CNS, in the test with SK-MEL-5 melanoma, in the test with K-562 leukemia and in the test with SR leukemia was over 100 µM in each case. This compound also yielded a TGI with SW-620 colon of over 100 µM.

Turning to `C=C(C)[C@@H]1CC[C@]2(C)[C@H](CC[C@@H]3[C@H]4[C@H]5OC[C@@]4(CCC5(C)C)CC[C@]32C)[C@@]1(C)CCCN`, the GI50 with TK-10 renal is 1.55 µM; in the test on EKVX NSCLC, 1.81 µM; in the test with SNB-19 CNS, 1.78 µM; in the test with SF-295 CNS, 1.78 µM; in the test with A498 renal, 1.72 µM; in the test on SK-MEL-5 melanoma, 1.91 µM. Moreover, the GI50 in the test with K-562 leukemia is 2.25 µM; in the test on SW-620 colon, 1.77 µM; in the test on NCI-H460 lung, 1.8 µM. Further, the TGI is 3.2 µM in the test with TK-10 renal; 3.31 µM with EKVX NSCLC; 3.24 µM in the test with SNB-19 CNS; 3.22 µM in the test with SF-295 CNS; 3.12 µM in the test on A498 renal; 3.55 µM in the test on SK-MEL-5 melanoma. Moreover, the values for the TGI in the test on K-562 leukemia, in the test on SW-620 colon and in the test on NCI-H460 lung were 9.01 µM, 3.48 µM and 3.39 µM, respectively.

With `CN(C)CCNC(=O)c1cccc2[nH]c(-c3ccccc3)nc12`, the TGI with TK-10 renal was 59.9 µM; with EKVX NSCLC, 53.5 µM; with SNB-19 CNS it was over 100 µM; in the test on SF-295 CNS, over 100 µM; in the test with A498 renal, 26.7 µM; in the test with SK-MEL-5 melanoma, 28.4 µM. Moreover, the TGI was over 100 µM in the test with K-562 leukemia, 45.8 µM in the test on SW-620 colon and 39.8 µM in the test on NCI-H460 lung.

Regarding `O=c1cnn2c(n1)sc1ccc3ccccc3c12`, the TGI in the test on TK-10 renal, in the test on EKVX NSCLC, in the test on SNB-19 CNS, with SF-295 CNS, in the test on SK-MEL-5 melanoma and in the test with K-562 leukemia was over 100 µM in each case. Further, the TGI with SR leukemia, with SW-620 colon and in the test with NCI-H460 lung was over 100 µM each time.

Take `COC(=O)C(Cl)=C1CC1`: the TGI was over 100 µM in the test with TK-10 renal; over 100 µM in the test on SNB-19 CNS; over 100 µM with SF-295 CNS; over 100 µM with A498 renal; 84.9 µM in the test with SK-MEL-5 melanoma; 60.5 µM in the test on K-562 leukemia. The results for the TGI with SW-620 colon and in the test with NCI-H460 lung were 37.1 µM and over 100 µM, respectively.

In the case of `COc1ccc2c(c1)CC[C@@H]1[C@@H]2CC[C@]2(C)C(c3ccco3)=C(C=O)C[C@@H]12`, the GI50 was 4.93 µM in the test with TK-10 renal; 20.1 µM in the test with EKVX NSCLC; 9.3 µM in the test on SNB-19 CNS; 3.4 µM in the test with SF-295 CNS; 26.1 µM in the test with A498 renal; 5.72 µM in the test with SK-MEL-5 melanoma. The GI50 was 3.56 µM in the test with K-562 leukemia, 6.26 µM in the test with SW-620 colon and 5.75 µM with NCI-H460 lung. Moreover, the TGI was 21.2 µM with TK-10 renal; 48.7 µM in the test on EKVX NSCLC; over 100 µM in the test with SNB-19 CNS; 12.8 µM in the test with SF-295 CNS; 64.8 µM in the test with A498 renal; 19 µM with SK-MEL-5 melanoma. The figures for the TGI with K-562 leukemia, in the test on SW-620 colon and with NCI-H460 lung were 22.7 µM, over 100 µM and 35.7 µM, respectively.

As to `O=[N+]([O-])c1nccn1COCCF`, the TGI in the test with TK-10 renal, in the test on EKVX NSCLC, with SNB-19 CNS, in the test with SF-295 CNS, with SK-MEL-5 melanoma and in the test on K-562 leukemia was over 100 µM each time. Also, the TGI with SR leukemia, with SW-620 colon and in the test with NCI-H460 lung was over 100 µM throughout.
